Measurements published in PubChem BioAssay (NCI).
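Cultured in 96-well plates, cells were exposed to test compound for 48 hours across five concentrations. At the GI50, growth is halved. Definition used: TGI = concentration required for complete inhibition of growth.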 Where a SMILES comes first, the peptide text is derived from it. [ ]: non-standard residue; d: D form. The star is where a group is joined. ξ: configuration not given here. NMeF = CN[CH](Cc1ccccc1)C(=O)O; ξNMe2Val = CC(C)C(C(=O)*)N(C)C; NMeV = CN[CH](C(=O)O)C(C)C; OtBu = CC(C)(C)O*

Assays:
Assay in all cases: inhibition of tumour cell growth, NCI panel, 48 h
HOP-92 NSCLC = test system: HOP-92 NSCLC
SNB-75 CNS = test system: SNB-75 CNS
SK-MEL-5 melanoma = test system: SK-MEL-5 melanoma
K-562 leukemia = test system: K-562 leukemia
SK-MEL-28 melanoma = test system: SK-MEL-28 melanoma
UACC-257 melanoma = test system: UACC-257 melanoma
NCI-H522 lung = test system: NCI-H522 lung
NCI-H226 lung = test system: NCI-H226 lung
MOLT-4 leukemia = test system: MOLT-4 leukemia
MCF7 breast = test system: MCF7 breast

Row | SMILES | TGI (HOP-92 NSCLC) | TGI (SNB-75 CNS) | TGI (SK-MEL-5 melanoma) | TGI (K-562 leukemia) | TGI (SK-MEL-28 melanoma) | TGI (UACC-257 melanoma) | TGI (NCI-H522 lung) | TGI (NCI-H226 lung) | TGI (MOLT-4 leukemia) | GI50 (HOP-92 NSCLC) | GI50 (SNB-75 CNS) | GI50 (K-562 leukemia) | GI50 (SK-MEL-28 melanoma) | GI50 (UACC-257 melanoma) | GI50 (NCI-H522 lung) | GI50 (NCI-H226 lung) | GI50 (MOLT-4 leukemia) | TGI (MCF7 breast)
1 | COc1ccc([C@H]2CC3C(=O)N(c4ccc(OC)cc4)C(=O)C3c3[nH]c4ccccc4c32)cc1 (stereo partly drawn) | 78.4 µM | 83.7 µM | > 100 µM | > 100 µM | > 100 µM | > 100 µM | > 100 µM | > 100 µM | > 100 µM |  |  |  |  |  |  |  |  | 
2 | COc1ccc2c3/c(=C\c4ccc(N(C)C)cc4)c4ccccc4n3[n+](C)c2c1 | 1.78 µM | 4.18 µM |  | > 40 µM | 2.27 µM | 0.424 µM | > 100 µM | 1.68 µM | 27.9 µM | 0.236 µM | 0.578 µM | 0.0272 µM | 0.173 µM | 0.0346 µM | 0.182 µM | 0.244 µM | 0.0944 µM | 
3 | CN(C)CCCn1c(Cn2nc3ccccc3n2)nc2cc(C(F)(F)F)ccc21 | 89.9 µM |  | 30.2 µM | 36.6 µM | 34.6 µM | 33.5 µM | 31.2 µM | > 100 µM | 45.6 µM |  |  |  |  |  |  |  |  | 64.7 µM
4 | CCOS(=O)(=O)c1ccc(-c2c3nc(c(-c4ccc(S(=O)(=O)OCC)cc4)c4ccc([nH]4)c(-c4ccc(S(=O)(=O)OCC)cc4)c4nc(c(-c5ccc(S(=O)(=O)OCC)cc5)c5ccc2[nH]5)C=C4)C=C3)cc1 | > 100 µM |  | > 31.6 µM |  |  | > 31.6 µM | > 31.6 µM | > 100 µM | > 31.6 µM |  |  |  |  |  |  |  |  | > 31.6 µM
5 | N#COc1ccc(Oc2ccc(OC#N)cc2)cc1 | > 100 µM | > 100 µM | > 100 µM | > 100 µM | > 100 µM | > 100 µM | > 100 µM | > 100 µM | > 100 µM |  |  |  |  |  |  |  |  | 
6 | COc1ccc(-c2nnc3n(C)c4ccccc4n3c2=O)cc1 | > 100 µM | 60.4 µM | > 100 µM |  | > 100 µM | > 100 µM | > 100 µM | > 100 µM | > 100 µM |  |  |  |  |  |  |  |  | > 100 µM
7 | O=c1[nH]c2ccc(CC(=S)N3CCOCC3)cc2o1 |  | > 100 µM |  |  | > 100 µM | > 100 µM |  | > 100 µM | > 100 µM |  |  |  |  |  |  |  |  | > 100 µM
8 | NC(=O)/N=C/c1c(O)c2ccccc2oc1=O | > 100 µM |  | > 100 µM | > 100 µM | > 100 µM | > 100 µM |  | > 100 µM | > 100 µM |  |  |  |  |  |  |  |  | 
9 | CC(C)C(C(=O)N(C)C(Cc1ccccc1)C(=O)N(C)C(C(=O)N(C)C(C(=O)N1CCCC1C(=O)OC(C)(C)C)C(C)C)C(C)C)N(C)C (stereo not drawn) (ξNMe2Val-[NMeF][NMeV][NMeV]P-OtBu; configuration not given here) |  |  | 38.8 µM | > 100 µM |  | > 100 µM | 46.5 µM | > 100 µM | 33.7 µM |  |  |  |  |  |  |  |  | 
10 | CCN(CC)CCC1CCCCN1CC(=O)N1c2cc(Cl)ccc2NC(=O)CC1C (stereo not drawn) | > 100 µM |  | > 100 µM | > 100 µM | > 100 µM |  | > 100 µM | > 100 µM | > 100 µM |  |  |  |  |  |  |  |  | > 100 µM
11 | O=c1/c(=C/c2ccccn2)sc2nc3cc4c(cc3n12)OCCO4 | > 100 µM | > 100 µM | > 100 µM | > 100 µM | > 100 µM | > 100 µM | > 100 µM | > 100 µM | > 100 µM |  |  |  |  |  |  |  |  | 
12 | COC(=O)c1c(O)ccc2c1c1c(n2Cc2cccc(C)c2)C(=O)c2ccccc2C1 | > 75 µM |  | > 75 µM | > 75 µM | 0.71 µM | > 75 µM |  | > 75 µM | 44.5 µM |  |  |  |  |  |  |  |  | > 75 µM
13 | CCCCCCCCCCCC[N+]12CC[N+](C)(CC1)CC2 | 47.7 µM | 37.1 µM | > 100 µM | 53.2 µM | > 100 µM | > 100 µM | 46 µM | 66.5 µM | > 100 µM |  |  |  |  |  |  |  |  | 
14 | CSC(C1c2ccccc2N(C)c2[nH]c(=O)n(C)c(=O)c21)S(=O)(=O)c1ccc(C)cc1 (stereo not drawn) | > 100 µM | > 100 µM | > 100 µM | > 100 µM | > 100 µM | > 100 µM | 46.6 µM | > 100 µM | > 100 µM |  |  |  |  |  |  |  |  | 
15 | CC#CCCCC1(C)CCNC1=S (stereo not drawn) | > 10 µM | > 10 µM |  | > 10 µM |  | > 10 µM | > 10 µM | > 10 µM | > 10 µM |  |  |  |  |  |  |  |  | > 10 µM
16 | COC(=O)C(CCC1(C)OCCO1)=[N+]=[N-] |  | > 100 µM | > 100 µM | > 100 µM | > 100 µM | > 100 µM | > 100 µM | > 100 µM | > 100 µM |  |  |  |  |  |  |  |  | 
17 | Fc1ccc(C(OCCN2CCC3CCC(C2)N3C/C=C/c2cccs2)c2ccc(F)cc2)cc1 (stereo not drawn) | 20.3 µM | 29 µM | 12.1 µM |  | 19.1 µM | 15.1 µM | 17.7 µM | 22.1 µM | 3.14 µM |  |  |  |  |  |  |  |  | 21.5 µM
18 | NC(=S)N1N=C2c3ccccc3CCC[C@H]2[C@@H]1c1ccccc1 |  | 0.9 µM | 8.93 µM | > 37.9 µM | 32.6 µM | 25.7 µM | 1.42 µM | 11.1 µM | 18.9 µM |  |  |  |  |  |  |  |  | 25.3 µM
19 | COc1ccc(-c2cc(-c3ccc(Nc4ccnc5cc(Cl)ccc45)cc3)[nH]c(=O)c2C#N)cc1 | > 100 µM | > 100 µM |  | > 100 µM | > 100 µM |  | > 100 µM | > 100 µM | > 100 µM |  |  |  |  |  |  |  |  | > 100 µM
20 | O=S(=O)(/N=C(\NO)Nc1ccc(Cl)cc1)c1cc2ccccc2s1 | 38.8 µM | 29.8 µM | 30.1 µM | > 100 µM | 39.6 µM | 49.9 µM | 27.2 µM | 33.2 µM | 77.8 µM |  |  |  |  |  |  |  |  | 
21 | O=C1Nc2ccc(Cl)c(I)c2C1=O |  | 50.8 µM | 34.9 µM | 65.5 µM | 31.7 µM | 33 µM | 32 µM | 20 µM | 54.6 µM |  |  |  |  |  |  |  |  | 
22 | COc1ccc(NC(=O)C(=O)Cc2ccc([N+](=O)[O-])c([N+](=O)[O-])c2CC(=O)C(=O)Nc2ccc(OC)cc2OC)c(OC)c1 | > 100 µM | > 100 µM |  | > 100 µM | > 100 µM | > 100 µM | > 100 µM | > 100 µM | > 100 µM |  |  |  |  |  |  |  |  | 
